The text below walks through data of patent publication US20050282888A1, “Fungicidal composition” (Sumitomo Chemical Company, Limited, priority 2004, published 2005).

The first experiment deals with Plasmopara viticola. Kind of experiment: Test Example 1: spray test on grape seedlings inoculated with Plasmopara viticola (protective value). It counts as in vivo, Plasmopara viticola on grape (variety: Berry A). To be noted: Plasmopara viticola, 168 h, single active ingredient, wettable powder sprayed on grape seedlings before inoculation, assessed after one night plus 7 days, read-out: Actual protective value. How it is done: Next, it is shown that the present invention compositions have an excellent controlling activity against plant diseases as test example. Generally, an expected controlling value, when two active ingredient compounds are mixed and applied, can be calculated by the Colby's formula described below. E=X+Y−(X×Y)/100 • X: protective value (%) when treatment is carried out by using an active ingredient compound A at the concentration of m ppm. • Y: protective value (%) when treatment is carried out by using an active ingredient compound B at the concentration of n ppm • E: protective value (%) when treatment is carried out by using the active ingredient compound A at the concentration of m ppm and the active ingredient compound B at the concentration of n ppm (hereinafter referred to as “expected protective value”) And, generally speaking, if actual protective value (%) when treatment is carried out by actually mixing two kinds of active ingredient compounds is not less than the expected protective value (%), it can be said that there is a mixing effect.
Sandy loam soil was compacted in a plastic pot, and a grape (variety: Berry A) was seeded and grown in a green house for 40 days. The test drug formulated to wettable powder according to Formulation Example 5, then, diluted with water to provide prescribed concentration, and these diluted solutions were sprayed onto stems and leaves so as to give sufficient adhesion on the surface of grape leaves. After that, a suspension of zoosporangia of Plasmopara viticola was inoculated by spraying to stems and leaves of the grape seedling. After inoculation, the grape seedling was first grown for one night at 23° C. under humid, then further grown for 7 days in the green house. Then, the ratio of diseased area (%) of Plasmopara viticola on stems and leaves of the grape seedling was investigated and the actual protective value was obtained according to the formula described below form the investigated result. protective value (%)={[the ratio of diseased area of non treated plant (%)−the ratio of diseased area of treated plant (%)/]/[the ratio of diseased area of non treated plant (%)]}×100
For `COc1ccc(C(=CC(=O)N2CCOCC2)c2ccc(Cl)cc2)cc1OC` [dimethomorph, 4-[3-(4-chlorophenyl)-3-(3,4-dimethoxyphenyl)acryloyl]morph oline, reference compound], the pest or weed control at 50 ppm amounted to 100%. Same read-out and setting: the same measure for `C#CCOc1ccc(CCC(=S)NCc2ccc(C)cc2)cc1OC` [(I-3), N-(4-methylbenzyl)-3-(3-methoxy-4-(2-propynyloxy)phenyl}pro panthioamide]: 100%. With `C#CCOc1ccc(CCC(=O)NCc2ccc3c(c2)CCCC3)cc1OC` [(I-25), N-((5,6,7,8-tetrahydronaphthalene-2-yl)methyl)-3-(3-methoxy-4-(2-propynyloxy)phenyl)propanamide], the pest or weed control at 50 ppm turned out to be 100%. As to `C#CCOc1ccc(CCC(=S)NCc2ccc(Cl)cc2)cc1OCC` [(I-15), N-(4-chlorobenzyl)-3-(3-ethoxy-4-(2-propynyloxy)phenyl)prop anthioamide], the pest or weed control at 50 ppm came to 100%.

For the compound `C#CCOc1ccc(CCC(=S)NCc2ccc(Br)cc2)cc1OC` [(I-19), N-(4-bromobenzyl)-3-{3-methoxy-4-(2-propynyloxy)phenyl)prop anthioamide], the pest or weed control at 50 ppm amounted to 100%. On to `C#CCOc1ccc(CCC(=S)NCc2ccc3c(c2)CCCC3)cc1OC` [(I-26), N-(5,6,7,8-tetrahydronaphthalene-2-ylmethyl)-3-(3-methoxy-4-(2-propynyloxy)phenyl}propanthioamide], for which the pest or weed control at 50 ppm was 100%. As for `C#CCOc1ccc(CCC(=O)NC(C#N)c2ccccc2)cc1OC` (stereo not drawn) [(I-5), N-(1-phenyl-1-cyanomethyl)-3-{3-methoxy-4-(2-propynyloxy)phenyl}propanamide], the pest or weed control at 50 ppm stood at 100%. On the same count and under the same terms, with `C#CCOc1ccc(CCC(=O)NC(C#N)c2ccc(CC)cc2)cc1OC` (stereo not drawn) [(I-9), N-{1-(4-ethylphenyl)-1-cyanomethyl)-3-(3-methoxy-4-(2-propynyloxy)phenyl)propanamide] the figure was 100%; with `C#CCOc1ccc(CCC(=S)NCc2ccc3c(c2)CCC3)cc1OC` [(I-23), N-(indan-5-ylmethyl)-3-(3-methoxy-4-(2-propynyloxy)phenyl)p ropanthioamide], 100%; with `C#CCOc1ccc(CCC(=S)NCc2ccc(Cl)cc2)cc1OC` [(I-13), N-(4-chlorobenzyl)-3-(3-methoxy-4-(2-propynyloxy)phenyl}pro panthioamide], 100%. Same read-out and setting: with `C#CCOc1ccc(CCC(=O)NCc2ccc(Cl)cc2)cc1OC` [(I-10), N-(4-chlorobenzyl)-3-(3-methoxy-4-(2-propynyloxy)phenyl}pro panamide] the figure was 100%; with `C#CCOc1ccc(CCC(=O)NC(C#N)c2ccc(Cl)cc2)cc1OC` (stereo not drawn) [(I-16), N-{1-(4-chlorophenyl)-1-cyanomethyl}-3-{3-methoxy-4-(2-propynyloxy)phenyl}propanamide], 100%; with `C#CCOc1ccc(CCC(=O)NCc2ccc(C)cc2)cc1OC` [(I-1), N-(4-methylbenzyl)-3-{3-methoxy-4-(2-propynyloxy)phenyl}pro panamide], 100%. Still for that read-out and setting: with `CCOc1ccc(CCC(=O)NC(C#N)c2ccc(Cl)cc2)cc1OC` (stereo not drawn) [(I-17), N-{1-(4-chlorophenyl)-1-cyanomethyl)-3-(3-methoxy-4-ethoxyphenyl)propanamide] the figure was 100%. For the compound `C#CCOc1ccc(CCC(=S)NCc2ccc3ccccc3c2)cc1OC` [(I-29), N-{(naphthalene-2-yl)methyl}-3-{3-methoxy-4-(2-propynyloxy)phenyl)propanthioamide], the pest or weed control at 50 ppm was 100%.

On to `C#CCOc1ccc(CCC(=S)NCc2ccc(C)c(C)c2)cc1OC` [(I-4), N-(3,4-dimethylbenzyl)-3-{3-methoxy-4-(2-propynyloxy)phenyl}propanthioamide], for which the pest or weed control at 50 ppm was found to be 100%. The same measure, in the same setting: the same measure for `C#CCOc1ccc(CCC(=O)NC(C#N)c2ccc(C)cc2)cc1OC` (stereo not drawn) [(I-6), N-{1-(4-methylphenyl)-1-cyanomethyl)-3-(3-methoxy-4-(2-propynyloxy)phenyl}propanamide]: 100%; for `C#CCOc1ccc(CCC(=O)NCc2ccc3ccccc3c2)cc1OC` [(I-28), N-{(naphthalene-2-yl)methyl}-3-{3-methoxy-4-(2-propynyloxy)phenyl}propanamide]: 100%.

Take `C#CCOc1ccc(CCC(=O)NCc2ccc3c(c2)CCC3)cc1OC` [(I-22), N-{(indan-5-yl)methyl}-3-{3-methoxy-4-(2-propynyloxy)phenyl}propanamide]: the pest or weed control at 50 ppm was 100%. Consider `CCOc1ccc(CCC(=O)NC(C#N)c2ccc(C)cc2)cc1OC` (stereo not drawn) [(I-7), N-{1-(4-methylphenyl)-1-cyanomethyl}-3-(3-methoxy-4-ethoxyphenyl)propanamide], for which the pest or weed control at 50 ppm stood at 100%. For `C#CCOc1ccc(CCC(=O)NC(C#N)c2ccc(Br)cc2)cc1OC` (stereo not drawn) [(I-20), N-{1-(4-bromophenyl)-1-cyanomethyl}-3-(3-methoxy-4-(2-propynyloxy)phenyl}propanamide], the pest or weed control at 50 ppm came out at 100%. On the same count and under the same terms, the same measure for `C#CCOc1ccc(CCC(=O)NCc2ccc(Cl)c(Cl)c2)cc1OC` [(I-11), N-(3,4-dichlorobenzyl)-3-{3-methoxy-4-(2-propynyloxy)phenyl}propanamide]: 100%. As for `C#CCOc1ccc(CCC(=O)NC(C#N)c2ccc3c(c2)CCC3)cc1OC` (stereo not drawn) [(I-24), N-{1-(indan-5-yl)-1-cyanomethyl}-3-{3-methoxy-4-(2-propynyloxy)phenyl}propanamide], the pest or weed control at 50 ppm is 100%. Still for that read-out and setting: the same measure for `C#CCOc1ccc(CCC(=O)NCc2ccc(CC)cc2)cc1OC` [(I-8), N-(4-ethylbenzyl)-3-{3-methoxy-4-(2-propynyloxy)phenyl}prop anamide]: 100%.

Regarding `C#CCOc1ccc(CCC(=S)NCc2ccc(Cl)c(Cl)c2)cc1OC` [(I-14), N-(3,4-dichlorobenzyl)-3-{3-methoxy-4-(2-propynyloxy)phenyl}propanthioamide], the pest or weed control at 50 ppm turned out to be 100%.

Still in this experiment, the particulars now being: single active ingredient, 50 ppm, wettable powder sprayed on grape seedlings before inoculation, assessed after one night plus 7 days.
As for `C#CCOc1ccc(CCC(=O)NCc2ccc(Br)cc2)cc1OC` [(I-18)], the Actual protective value is on record as 100%. For the compound `C#CCOc1ccc(CCC(=O)NCc2ccc(Cl)cc2)cc1OCC` [(I-12), N-(4-chlorobenzyl)-3-{3-ethoxy-4-(2-propionyloxy)phenyl}pro panamide], the Actual protective value is 100%. Take `C#CCOc1ccc(CCC(=O)NC(C#N)c2ccc3c(c2)CCCC3)cc1OC` (stereo not drawn) [(I-27), N-{1-(5,6,7,8-tetrahydronaphthalene-2-yl)-1-cyanomethyl}-3-(3-methoxy-4-(2-propyonyloxy)phenyl)propanamide]: the Actual protective value stood at 100%. Consider `C#CCOc1ccc(CCC(=O)NCc2ccc(C)c(C)c2)cc1OC` [(I-2)], for which the Actual protective value was determined as 100%. The same measure, in the same setting: with `CCOc1ccc(CCC(=O)NC(C#N)c2ccc(Br)cc2)cc1OC` (stereo not drawn) [(I-21)] the figure was 100%.
